In brackets after ≈: the same amount, converted by molar mass. Activity calls are given as the source filed them. The calls are words filed in the database; no cut-off is given here.
How the values were obtained:
[1] = system: Streptococcus pyogenes; experiment: Antimicrobial activity against strong ciprofloxacin-resistant Streptococcus pyogenes at 10 ug by disk diffusion assay; type: functional; details: read-out: IZ
[2] = system: Streptococcus pyogenes; experiment: Antimicrobial activity against strong ciprofloxacin-resistant Streptococcus pyogenes by agar dilution method; type: functional
[3] = system: Streptococcus pyogenes; experiment: Antimicrobial activity against ciprofloxacin-susceptible Streptococcus pyogenes harboring Asp91/Asn mutation in parC gene assessed as 1 fold decrease in compound MIC by agar dilution method; type: functional, organism-based
[4] = system: Streptococcus pyogenes; experiment: Antimicrobial activity against mild ciprofloxacin-resistant Streptococcus pyogenes assessed as 1 fold decrease in compound MIC by agar dilution method; type: functional, organism-based
[5] = system: Streptococcus pyogenes; experiment: Antimicrobial activity against strong ciprofloxacin-resistant Streptococcus pyogenes assessed as 1 fold decrease in compound MIC by agar dilution method; type: functional, organism-based
[6] = system: Streptococcus pyogenes; experiment: Antimicrobial activity against ciprofloxacin-susceptible Streptococcus pyogenes harboring Asp91/Asn mutation in parC gene by agar dilution method; type: functional
[7] = system: Streptococcus pyogenes; experiment: Antimicrobial activity against mild ciprofloxacin-resistant Streptococcus pyogenes by agar dilution method; type: functional
[8] = system: Streptococcus pyogenes; experiment: Antimicrobial activity against macrolide-resistant Streptococcus pyogenes emm77/ST399/T28 expressing tetM gene by agar dilution method; type: functional

Row | Structure (SMILES) | zone of inhibition at 10 µg/disc [1] [mm] | MIC [2] [µg/mL] | Activity [3] | Activity [4] | Activity [5] | MIC50 [6] [µg/mL] | MIC90 [6] [µg/mL] | MIC50 [7] [µg/mL] | MIC90 [7] [µg/mL] | MIC [8] [µg/mL]
1 | O=C(O)c1cn(C2CC2)c2cc(N3CCNCC3)c(F)cc2c1=O [CIPROFLOXACIN] | 0 | 32 (≈ 96.6 µM) | Active | Active | Active | < 0.5 | 1 (≈ 3.02 µM) |  |  | 
2 | CO/N=C1\CN(c2nc3c(cc2F)c(=O)c(C(=O)O)cn3C2CC2)CC1CN (configuration not stated) [GEMIFLOXACIN] | 0 | 1 (≈ 2.57 µM) |  |  |  | ≤ 0.25 | ≤ 0.25 | ≤ 0.25 | ≤ 0.25 | 
3 | Cc1c(F)c(N2CCNC(C)C2)cc2c1c(=O)c(C(=O)O)cn2C1CC1 (configuration not stated) [GREPAFLOXACIN] | 0 | 16 (≈ 44.5 µM) |  |  |  | ≤ 0.5 | 1 (≈ 2.78 µM) | 2 (≈ 5.56 µM) | 2 (≈ 5.56 µM) | 
4 | C[C@H]1COc2c(N3CCN(C)CC3)c(F)cc3c(=O)c(C(=O)O)cn1c23.C[C@H]1COc2c(N3CCN(C)CC3)c(F)cc3c(=O)c(C(=O)O)cn1c23.O [LEVOFLOXACIN] | 0 | 32 |  |  |  | ≤ 0.5 | 1 | 2 | 2 | 
5 | COc1c(N2C[C@@H]3CCCN[C@@H]3C2)c(F)cc2c(=O)c(C(=O)O)cn(C3CC3)c12 [MOXIFLOXACIN] | 0 | 4 (≈ 9.96 µM) |  |  |  | ≤ 0.25 | ≤ 0.25 | 0.5 (≈ 1.25 µM) | 0.5 (≈ 1.25 µM) | 
6 | CCn1cc(C(=O)O)c(=O)c2cc(F)c(N3CCNCC3)cc21 [NORFLOXACIN] | 0 | 64 (≈ 200 µM) | Active | Active | Active | 4 (≈ 12.5 µM) | 8 (≈ 25.1 µM) | 32 (≈ 100 µM) | > 32 | 
7 | CC1COc2c(N3CCN(C)CC3)c(F)cc3c(=O)c(C(=O)O)cn1c23 (configuration not stated) [OFLOXACIN] | 0 | 64 (≈ 177 µM) |  |  |  | 1 (≈ 2.77 µM) | 2 (≈ 5.53 µM) | 4 (≈ 11.1 µM) | 8 (≈ 22.1 µM) | 
8 | CN(C)[C@@H]1C(O)=C(C(N)=O)C(=O)[C@@]2(O)C(O)=C3C(=O)c4c(O)cccc4[C@@](C)(O)[C@H]3C[C@@H]12 [TETRACYCLINE] |  |  |  |  |  |  |  |  |  | 8 (≈ 18 µM)

— ChEMBL document CHEMBL1212736, “Prevalence and clonal characterization of Streptococcus pyogenes clinical isolates with reduced fluoroquinolone susceptibility in Spain” (2010)
